Consider one compound from article PMC8145986, “In Vitro Enzymatic and Kinetic Studies, and In Silico Drug-Receptor Interactions, and Drug-Like Profiling of the 5-Styrylbenzamide Derivatives as Potential Cholinesterase and β-Secretase Inhibitors with Antioxidant Properties” (Antioxidants, 2021).

What is called IC50 is the point on the concentration scale where inhibition reaches its midpoint. By Ki is commonly meant a dissociation constant, usually derived from enzyme kinetics or from competition with a known ligand.

The target in assay [1] is T1, BChE (Homo sapiens, UniProt P06276).
T1 construct: purchased Cloud-Clone Corp. (via Biocom Africa (Pty) Ltd.)
T1 sequence (P06276 29-602): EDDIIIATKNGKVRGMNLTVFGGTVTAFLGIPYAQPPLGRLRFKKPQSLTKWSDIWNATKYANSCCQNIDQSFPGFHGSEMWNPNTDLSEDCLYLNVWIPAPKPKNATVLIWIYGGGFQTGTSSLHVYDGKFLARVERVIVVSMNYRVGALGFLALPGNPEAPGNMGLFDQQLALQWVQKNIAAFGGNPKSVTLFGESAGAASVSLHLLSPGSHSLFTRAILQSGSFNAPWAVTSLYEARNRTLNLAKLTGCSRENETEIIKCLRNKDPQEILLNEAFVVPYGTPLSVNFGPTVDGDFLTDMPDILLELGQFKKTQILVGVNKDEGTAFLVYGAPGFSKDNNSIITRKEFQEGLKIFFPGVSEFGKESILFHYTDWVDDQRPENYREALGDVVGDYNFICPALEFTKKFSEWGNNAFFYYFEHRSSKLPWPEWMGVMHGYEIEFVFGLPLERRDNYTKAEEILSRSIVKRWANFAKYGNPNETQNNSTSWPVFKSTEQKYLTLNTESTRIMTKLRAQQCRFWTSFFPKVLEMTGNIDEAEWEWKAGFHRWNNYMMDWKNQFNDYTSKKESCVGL
The assay is described as follows: biochemical. The note with it: mean ± SD of three independent experiments. The protocol:
The melting point values of the test compounds were recorded on a Thermocouple digital melting point apparatus (Mettler Toledo LLC, Columbus, OH, USA). The infrared (IR) spectra were recorded using the thin-film method on a Bruker VERTEX 70 FT-IR Spectrometer (Bruker Optics, Billerica, MA, USA) equipped with an ATR (diamond attenuated total reflectance) accessory. Merck kieselgel 60 (0.063–0.200 mm) (Merck KGaA, Frankfurt, Germany) was used as a stationary phase for column chromatography. The ^1H-NMR and ^13C-NMR spectra of the prepared compounds were obtained as deuterated dimethyl sulfoxide ((CD3)2SO) solutions using Agilent 500 MHz NMR spectrometer (Agilent Technologies, Oxford, UK) operating at 500 MHz and 125 MHz for ^1H and ^13C, respectively. The chemical shifts are quoted relative to tetramethylsilane (TMS) used as an internal reference standard (δ = 0.00 ppm) or a residual protonated solvent. The high-resolution mass spectra were recorded at an ionization potential of 70 eV using Micromass Autospec-TOF (double focusing high resolution) instrument (Waters Corp., Milford, MA, USA). The synthesis and analytical data for 2-amino-5-iodobenzamide (1) have been reported in our previous study. Recombinant human AChE (BioLegend) and BChE (Cloud-Clone Corp.) were purchased via Biocom Africa (Pty) Ltd. (Centurion, Pretoria, South Africa).
AChE and BChE were used to determine cholinesterase activities spectrophotometrically using […] as substrates, respectively, following a modification of the Ellman’s method, as described in our previous study, and the reactions were performed in triplicate at 37 °C in a 96-well plate. […] A multi-channel pipette was used for the addition of reagents to the wells.
A total of 8.0 μL of the test compound and 2.0 μL of BChE (0.02 mg/mL) was added to each of the designated wells of the 96-well plate, and the mixtures were incubated at room temperature for 30 min. Tris buffer (70 μL) was added to each well containing the reaction mixture and incubation was continued for a further 10 min at this temperature, which was followed by the addition of 10 μL solution of 5,5′-dithiobis-(2-nitrobenzoic acid) (DTNB) (3 mM in Tris buffer, 50 mM, pH 7.7) and butyrylcholine iodide (5 mM in Tris buffer, 50 mM, pH 7.7) to each well to initiate the reaction. […] The IC50 and standard deviation values using the Graph Pad Prism.

The target in assay [2] is T2, β-secretase (Homo sapiens, UniProt P56817).
T2 construct: purchased Thermo Fisher Scientific Corporation; host or cells: baculovirus-expressed
T2 sequence (P56817 46-501): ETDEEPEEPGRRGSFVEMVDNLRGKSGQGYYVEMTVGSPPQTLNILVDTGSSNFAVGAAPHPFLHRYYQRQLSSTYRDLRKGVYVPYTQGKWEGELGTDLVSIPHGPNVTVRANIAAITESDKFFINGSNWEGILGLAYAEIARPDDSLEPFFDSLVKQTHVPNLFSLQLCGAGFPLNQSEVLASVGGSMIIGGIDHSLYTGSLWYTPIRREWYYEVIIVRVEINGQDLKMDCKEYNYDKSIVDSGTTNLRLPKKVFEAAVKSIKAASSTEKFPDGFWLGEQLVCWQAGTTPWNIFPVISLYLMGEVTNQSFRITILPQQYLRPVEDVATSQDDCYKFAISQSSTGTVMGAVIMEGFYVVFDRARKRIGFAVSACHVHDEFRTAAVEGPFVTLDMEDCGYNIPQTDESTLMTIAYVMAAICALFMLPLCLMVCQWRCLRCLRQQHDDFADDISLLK
Nature of the assay: β-Secretase (BACE-1) inhibition assay. The following applies: mean ± SD of three independent experiments. Format: biochemical. As for the experimental part: The β-secretase inhibitory activities of the test compounds were assayed in triplicates in 96-well plates using a recombinant baculovirus-expressed β-secretase and a specific substrate (Rh-[…]-Quencher), according to the manufacturer’s (Thermo Fisher Scientific Corporation, Johannesburg, Gauteng, South Africa) instructions, as described in our previous study. […] To each well, 2.0 μL human recombinant β-secretase (1.0 U/mL) was added to start the reaction and the reaction mixture was incubated for 60 min at room temperature. […] The IC50 and standard deviation values of both the test compounds and reference standard were calculated using the Graph Pad Prism.

The nature of assay [3]: DPPH radical scavenging assay. The following applies: read-out: IC50 (SD) DPPH. The protocol: The antioxidant activities of the test compounds against ascorbic acid (Sigma Aldrich, Saint Louis, MO, USA) as a positive control were evaluated using a 2,2-diphenyl-1-picrylhydrazyl (DPPH) radical scavenging assay developed by Zhu et al., as described in our previous study. Duplicate solutions (20 μL) of the test compounds and ascorbic acid in DMSO (final concentrations: 5, 10, 25, 50, and 100 μM) were added into each designated well of a 96-well plate. A solution of DPPH (0.20 mM) (20 μL) in methanol was added to each well, and the 96-well plate was wrapped with aluminium foil and incubated in the dark for 45 min. Five absorbance readings were recorded at 512 nm using a Varioskan flash microplate spectrophotometer reader. The average values obtained from the absorbance readings were used to determine the IC50 and standard deviation values.
Background: Loss of DPPH colour is used to gauge radical scavenging.

The target of the next assay is T3, AChE (Homo sapiens, UniProt P22303).
T3 construct: purchased BioLegend (via Biocom Africa (Pty) Ltd.)
T3 sequence (P22303 32-614): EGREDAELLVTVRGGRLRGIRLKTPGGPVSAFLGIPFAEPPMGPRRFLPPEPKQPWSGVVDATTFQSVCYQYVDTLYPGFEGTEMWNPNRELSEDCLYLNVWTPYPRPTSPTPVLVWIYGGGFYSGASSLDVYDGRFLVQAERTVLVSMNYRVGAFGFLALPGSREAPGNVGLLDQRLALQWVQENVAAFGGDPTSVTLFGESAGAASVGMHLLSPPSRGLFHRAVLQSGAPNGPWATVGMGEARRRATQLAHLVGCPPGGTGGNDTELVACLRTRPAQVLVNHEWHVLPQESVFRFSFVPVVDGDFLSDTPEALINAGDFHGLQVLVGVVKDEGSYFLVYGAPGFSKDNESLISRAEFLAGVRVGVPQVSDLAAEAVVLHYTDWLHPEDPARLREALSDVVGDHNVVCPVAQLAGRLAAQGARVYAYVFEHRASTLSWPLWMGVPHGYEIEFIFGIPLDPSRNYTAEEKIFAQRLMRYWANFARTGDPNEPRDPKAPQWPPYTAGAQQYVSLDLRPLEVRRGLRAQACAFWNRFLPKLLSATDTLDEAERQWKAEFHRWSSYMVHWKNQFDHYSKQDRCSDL
Nature of the assay: Enzyme kinetic study against AChE (Lineweaver-Burk and Dixon plots). Format: biochemical. As for the experimental part: (§1) The AChE and BChE enzyme kinetic studies were performed in triplicate in a 96-well plate following a procedure described in our previous study. Varying concentrations of 2a or 3c (0, 2.5, 3.5, and 5 μM) and AChI or BChI (0.1, 0.5, 2.5, and 5 mM) were used for the kinetic assays. The absorbances were measured after every 1 s for 10 s at a wavelength of 412 nm using a microplate spectrophotometer reader. The Lineweaver–Burk plots (plot of the inverse of velocity (1/v) against the inverse of the substrate concentration (1/[S])) were constructed.

The target of assay [4] is T1, BChE. The assay is described as follows: Enzyme kinetic study against BChE (Lineweaver-Burk and Dixon plots). The format is biochemical. As for the experimental part: as §1
For assay [5], the target named is T2, β-secretase. The assay is described as follows: Enzyme kinetic study on β-secretase (Lineweaver-Burk and Dixon plots). The format is biochemical. As for the experimental part:
Compounds 2a and 3b were subjected to kinetic studies on β-secretase using substrate concentrations 150, 300, and 450 nM at increasing inhibitor concentrations (0, 4, 8, and 16 μM) following a method reported before. The fluorescence readings were recorded after every 1 s for 10 s at excitation and emission values of 545 nm and 590 nm, respectively. The Lineweaver–Burk plots (plots of the inverse of velocity against the inverse of the substrate concentration) were constructed to assess changes in enzymatic parameters. The Dixon plots were also prepared to determine the inhibitor constants, Ki.

The next assay concerns A549 cells. The assay is described as follows: LPS-induced ROS production in A549 cells (H2DCF-DA). Format: cell-based, human. The note with it: 10 μM compound, LPS 1 μg/mL, 24 h (Figure 9b). As for the experimental part:
Mitochondrial ROS levels in Vero and A549 cell lines was measured using the 2′,7′-dichlorofluorescin diacetate (H2DCF-DA) (Sigma-Aldrich, St. Louis, MO, USA, Merck, Darmstadt, Germany), fluorescent probe. Cells (1 × 10^5) were seeded in 96 well plates and incubated overnight at 37 °C in 5% CO2. A minimum non-toxic concentration (10 μM) of compounds (2a and 3b) was added separately as treatment and further incubated for an hour, after which LPS (1 μg/mL) was added to induce the production of ROS. After 24 h of incubation, the media was aspirated, cells were rinsed with PBS, and followed by the addition of H2DCF-DA (10 μM) for 30 min in the dark. The absorbance of the fluorescence was measured using a microplate reader (VarioSkan Flash, Thermo Fisher Scientific, Finland) at 485 and 535 nm values of excitation and emission, respectively. Data was processed and analysed using ANOVA, which was followed by Duncan’s multiple comparison test.

As for `NC(=O)c1cc(/C=C/c2ccccc2)ccc1N` [Compound 2a, (E)-2-Amino-5-styrylbenzamide], the IC50 against BChE [1] worked out at 4.7 ± 0.32 µM; against β-secretase [2], 15.8 ± 0.26 µM; in assay [3] it was 5.8 ± 0.32 µM. For the same compound, the “mode of inhibition AChE” value on AChE was “non-competitive”. The Ki was found to be 1.2 µM on AChE (read-out: Ki (Dixon plot) AChE), 2 µM on BChE [4] (read-out: Ki (Dixon plot) BChE) and 3.44 ± 0.3 µM at β-secretase [5] (read-out: Ki (Dixon plot) β-secretase). Moreover, at BChE [4], the “mode of inhibition BChE” value is “mixed mode”. Besides, on β-secretase [5], the “mode of inhibition β-secretase” value is recorded as “mixed mode”. Moreover, the ROS reduction result with A549 cells was “about 65%”.
